Experiments:
[1] = Glycerine vs Bio-PDO - Efficacy (deodorant actives, in vivo human)
[2] = Glycerine vs Bio-PDO - Stability (Efficacy/shelf-life); details: active in GLYCERINE; in vivo (human)
[3] = Glycerine vs Bio-PDO - Irritation (in vivo human)
[4] = Glycerine vs Bio-PDO - Stability (Shrinkage - 3 months); type: physicochemical

Molecule	Efficacy, # hours ([1]; active in Bio-PDO) [h]	Efficacy, # hours ([1]; active in GLYCERINE) [h]	Stability (Efficacy/shelf-life), # months [2] [months]	Irritation, Ranking 1-10 ([3]; active in Bio-PDO)	Irritation, Ranking 1-10 ([3]; active in GLYCERINE)	Stability (Shrinkage - 3 months), % in product ([4]; active in Bio-PDO) [%]	Stability (Shrinkage - 3 months), % in product ([4]; active in GLYCERINE) [%]
polyglyceryl-3 caprylate [polyglycerol 3 caprylate]	12	0	–	–	–	–	–
CCCCCCCCCCCC(=O)OCC(O)CO (stereo not drawn) [GML, Glyceryl monolaurate]	12	4	6	0	0	3	0

Reference: patent US20070202062A1, “Natural deodorant compositions comprising renewably-based, biodegradable 1,3-propanediol” (priority 2006, published 2007)
